How the values were obtained:
Assay type in all cases: in vivo
[1] = tested on: cotton; experiment: Field trials in Greece: plant growth regulating effects (plant height); settings: 20.0 gm/Ha
Description: Field trials were established in the country of Greece to determine the plant growth regulating effects of several products, including the chemical formulation of the present invention. The particular formulation of the present invention used in these trials, was as follows: 1.0 parts CCC; 2.7 parts WSCP; 0.6 parts CC; 27 parts Calcium; and, 6.75 parts Zinc (parts per weight). All of the chemical applications were applied at the same time, and there were three replications at each trial site.

[2] = tested on: MAXXA cotton; experiment: Study on MAXXA cotton: effects on plant growth and development; settings: 10 gm/A
Protocol: A study was conducted on MAXXA cotton to determine the effects of Mepiquat Chloride and the combination of (CCC) chlormequat chloride/WSCP on plant growth and development.
In this example, the amount of WSCP used in each chemical treatment was constant, and the amount of CCC varied from 2.5 to 5.0 grams/acre. The corresponding ratios of WSCP and CCC were as follows: at the 2.5 gram/acre rate the ratio of WSCP to CCC was 30:1; at the 5.0 gram/acre rate the ratio of WSCP to CCC was 15:1. It should also be noted that 5.0% calcium and 1.25% zinc were also added to each of the mixtures.

[3] = tested on: Stoneville cotton variety; experiment: Field study in Mississippi on Stoneville cotton: fruit (boll) set; settings: 10 grams per acre, applied once on July 8th, with 5.0% calcium and 1.25% zinc
Protocol: A field study was conducted in the State of Mississippi on a Stoneville cotton variety, in which the physiological characteristics of plants treated with the plant growth regulator of the present invention (a mixture of CCC, WSCP, and CC), were compared to the characteristics of untreated plants, or “checks”, and the characteristics of plants treated with PIX.
The formulation of the present invention used in Example 2 was as follows: the ratio of WSCP to CCC was reduced to 2.7:1, and the ratio of CC (Choline Chloride) to CCC was 0.6:1. Also added to the formulation was 5.0% calcium and 1.25% zinc.
The rate of PIX application was 10 grams per acre, applied once on July 8th of the study year. The rate and timing of this application was consistent with the manufacturer's label recommendation. The rate of application of the plant growth regulator of the present invention was 2.5 grams per acre, applied once on June 28th and again on July 18th. As with Example 1, the formulations of PIX used in Example 2, included 5.0% calcium and 1.25% zinc.
The physiological characteristics under study determine the effectiveness of the chemical products on fruit, or boll, set. The first fruiting position on a reproductive branch is the most important plant feature that affects expected plant yield. Consequently, the higher the percentage of fruit set at the first fruiting position the higher the fruit yield potential.

C[N+]1(C)CCCCC1.[Cl-] [Mepiquat Chloride, N,N-dimethylpiperidinium chloride]
Plant Height ([1]; Site 1): 10.00 Cm | Plant Height ([1]; Site 2): 27.33 Cm | Plant Height ([1]; Site 3): 7.78 Cm | Average Bottom 5 FPB (First Position Bolls As A Percentage) [2]: 60.0 Percentage | Average Fruiting Branches [2]: 15.7 | Average Nodes [2]: 21.7 | Average Plant Height [2]: 35.9″ | Average Top 5 FPB (First Position Bolls As A Percentage) [2]: 43.0 Percentage | Average Vegetative Nodes [2]: 6.1 | First Fruiting Branch [3]: 6 | Percentage Of First Fruiting Positions (Nodes 6-13) [3]: 76.3% | Total Percentage Of Fruit Set (Nodes 6-13) [3]: 65.0%

Reference: patent US6518221B1, “Plant growth regulator and method for using same” (Wilbur-Ellis Company, priority 2002, dated 2003)
